The data set is described as follows: Stability of MASM in plasma QC samples. The note with it: QC samples: autosampler 4℃ 8 h, -80℃ 30 days, three freeze-thaw cycles. Format: in vitro ADME. Here is the method: determined by calculating the RSD of 6 samples analyzed on the same day, while the inter-day precision was determined by calculating the RSD of 3 analytical batches analyzed over 3 consecutive days.
1.4 Extraction recovery and matrix effect
The extraction recovery was in assessed by comparing the peak area of the blank […]
i n E q . […]
Extraction recovery=Ap/Ax×100% Eq. (1)
Matrix effect=Ax/As×100% Eq. (2)
Ap: 10 μl of high (H), medium (M), and low (L) concentration of standard solution and 300 μl of IS were added to 90 μl of blank plasma, respectively, then pre-processed by sample pretreatment method and injected to obtain the peak area A p. […]
The stability of analytes in plasma was assessed by analyzing peak area in three different concentration QC samples. The long-term stability was evaluated by analyzing samples that had been stored at a temperature of -80℃ for a duration of 30 days. […]
freeze-thaw stability was assessed by analyzing samples that had undergone three freeze-thaw cycles, transitioning from a temperature of -80℃ to 25℃. Post-preparative stability was assessed by analyzing samples that had been stored in the autosampler at 4℃ for a duration of 8 h. […]
0.990 across the relevant concentration ranges (Supplementary Table S1). The lower limit of the quantitation (LLOQ) was determined to be 5.03 ng/ml. […]

Drawing on PMC10820135, “Pharmacokinetic, Tissue Distribution, Metabolite, and Toxicity Evaluation of the Matrine Derivative, (6aS, 10S, 11aR, 11bR, 11cS)-10-Methylaminododecahydro-3a, 7a-Diaza-benzo (de) Anthracene-8-thione” (Molecules, 2024), this text covers stability in plasma for one compound.

Regarding `CNC1CC(=S)N2CC3CCCN4CCCC(C34)C2C1` [MASM, (6aS, 10S, 11aR, 11bR, 11cS)-10-methylaminododecahydro-3a, 7a-diaza-benzo (de) anthracene-8-thione], the stability in plasma result is given as “stable”.
